Results from patent publication US20250205158A1, “BIODEGRADABLE LIPIDS AND FORMULATIONS FOR DELIVERY OF MRNA” (Massachusetts Institute of Technology, priority 2023, published 2025).
Where two headings read alike, the source gives them in different places.

Key:
TNS assay of LNP pKa = format: physicochemical
Description: (§1) Structural features of AMG lipids that facilitate mRNA delivery. The factors contributing to lipid potency were evaluated. The ionization properties of AMG1541 LNPs were investigated using a previously established 6-(p-toluidino)-2-napthalenesulfonic acid (TNS) assay.^22 The pKa of AMG LNPs showing higher in vivo mRNA transfection than SM-102 ranged between pH 6.4-6.7. […] In addition to endosomal buffering, it is hypothesized that the protonated ionizable lipids within the acidic endosome bind with anionic phospholipids within the endosomal membrane, destabilizing the membrane's bilayer and promoting endosomal pore formation.^17,52 The membrane fusion properties of the ionizable lipids was evaluated via ^31P NMR. When bilayer forming DPPS vesicles were mixed with equimolar AMG lipid under acidic conditions, a bilayer to hexagonal phase transition was observed, indicating their membrane-destabilizing nature (FIG. 15D).

mice [1] = experiment: hEPO mRNA LNP protein production after intravenous administration; format: in vivo
PCSK9 gene = experiment: CRISPR-Cas9 gene editing with mRNA LNPs; format: in vivo; conditions: dose of 3 mg/kg
Description: The ability of AMG1541 mRNA LNPs to induce CRISPR-Cas9 gene editing was also evaluated (FIGS. 9A-9D).

[2] = LNP characterization (diameter, PDI, % EE); format: physicochemical; conditions: LNP formulated with the named lipid
Description: Representative LNP Characterization Data. The diameter, polydispersity index (PDI), and % EE were characterized for various LNPs.
LNP characterization. Concentration of mRNA was determined using a Quant-IT Ribogreen assay. LNPs were diluted in either native TE buffer (ThermoFisher) or denaturing TE buffer+0.5% Triton-X 100 (Millipore-Sigma) to measure the “free” and total mRNA, respectively. 100 μL of these unknowns were added to a black 96-well plate. Separately, standard curves ranging from 2 ng/μL-0 ng/μL were prepared in each of these buffers and 100 μL were added to the same 96-well plate. Finally, Quant-IT Ribogreen reagent (ThermoFisher) was diluted 1:200 in TE buffer and 100 μL of this solution was added to each of the wells. The well plate was then mixed at 400 rpm with a plate shaker for 5 mins. and the fluorescence was read with an excitation/emission of 485/535. LNPs were measured in triplicate and standards were measured in duplicate. RNA concentration in each of the unknown wells was calculated by fitting the standard curves with a linear trendline. Encapsulation efficiency (% EE) was calculated according to: […]
Dynamic light scattering and zeta potential measurements were performed using a Malvern Zetasizer system. The reported diameter and PDI were obtained from the cumulants fit of the autocorrelation function. Zeta potential measurements were performed in 0.1×PBS, pH 7.4 and calculated using the Smoluchowski approximation.

mice [3] = format: in vivo, BALB/cJ and C57B1/6J mice; conditions: HA mRNA, dose=1 μg, day 35
[4] = 31P NMR membrane fusion study; format: physicochemical; conditions: acidic pH
Description: as §1

mice [5] = experiment: Germinal center response after HA mRNA LNP prime dose; format: in vivo, BALB/cJ mice; conditions: LDLN 8 days following a prime dose
[6] = intravenous delivery of mRNA to the liver (FIG. 18), EPO in blood 6 hours

CCCCCC/C=C\CCCC(=O)OCC(O)CN1CCN(CC(O)COC(=O)CCC/C=C\CCCCCC)CCN(CC(O)COC(=O)CCC/C=C\CCCCCC)CCN(CC(O)COC(=O)CCC/C=C\CCCCCC)CCN(CC(O)COC(=O)CCC/C=C\CCCCCC)CCN(CC(O)COC(=O)CCC/C=C\CCCCCC)CC1 (stereo not shown) [AMG1541]
LNP pKa (TNS assay of LNP pKa): ~6.5
hEPO expression profile in the liver, comparable to MD-1 (mice [1]; administered intravenously): excellent hEPO expression profile
hEPO protein expression in liver (mice [1]; dose range of 0.25-1 mg/kg): consistent levels of protein expression
fold higher protein expression than Lipid 5 (mice [1]; hEPO mRNA, 1 mg/kg dose): 3-4 fold
hEPO protein expression (mice [1]; higher doses beyond 2 mg/kg): reduced protein expression
expression relative to cKK-E12 (mice [1]; intravenous delivery of mRNA to the liver (FIG. 18)): comparable expression to cKK-E12
fold higher expression than LP-01 (mice [1]; [6]): ~5 fold
fold higher expression than Lipid 5 (mice [1]; [6]): ~3 fold
hEPO production in liver, repeat dosing (mice [1]; repeat dosing over 3 weeks at 0.05-1 mg/kg): consistent hEPO production
serum PCSK9 levels (PCSK9 gene): significant reduction in serum PCSK9 levels
EE % ([2]; Ribogreen assay): 86.0935%
Diameter (nm) ([2]; dynamic light scattering): 85 nm
PDI ([2]; dynamic light scattering): 0.107
fold higher binding antibody endpoint titers than SM-102 (mice [3]; female BALB/cJ mice): 6.8 fold
fold higher binding antibody titers than SM-102 (mice [3]; female C57B1/6J mice): 5.8 fold
fold higher binding antibody endpoint titers than SM-102 (mice [3]; male BALB/cJ mice): 15.8 fold
31P NMR phase behaviour [4]: bilayer membrane to hexagonal HII transformation
fold higher Ag+ GC B cells than SM-102 treated mice (mice [5]): 6.0 fold
fold more Fas+GL7+ GC B cells than SM-102 treated mice (mice [5]): 4.8 fold
